The pKi is the negative decadic logarithm of the Ki, by convention in mol/L. Higher therefore signals a small Ki. For orientation: inhibition means the relative decrease from the control value, in per cent.

Experimental findings from ChEMBL document CHEMBL2396537, “Orally active opioid compounds from a non-poppy source” (J Med Chem, 2013) are described below.

In series [1] the target is Kappa-type opioid receptor (Homo sapiens, UniProt P41145). As to the kind of experiment: Binding affinity to kappa opioid receptor (unknown origin).
Kappa-type opioid receptor (Homo sapiens, UniProt P41145), sequence (P41145 whole entry): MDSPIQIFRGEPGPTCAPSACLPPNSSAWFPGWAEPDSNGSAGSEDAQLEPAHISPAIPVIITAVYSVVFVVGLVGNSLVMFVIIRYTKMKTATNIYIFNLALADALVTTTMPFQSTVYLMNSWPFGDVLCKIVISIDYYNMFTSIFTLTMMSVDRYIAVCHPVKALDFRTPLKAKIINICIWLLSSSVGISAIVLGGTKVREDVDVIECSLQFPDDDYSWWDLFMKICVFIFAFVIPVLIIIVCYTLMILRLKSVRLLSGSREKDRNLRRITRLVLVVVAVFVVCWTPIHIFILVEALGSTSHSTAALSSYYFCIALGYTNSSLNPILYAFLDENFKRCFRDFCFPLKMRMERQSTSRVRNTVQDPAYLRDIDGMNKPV
In series [2] the target is Mu-type opioid receptor (Homo sapiens, UniProt P35372). The experiment in a line: Binding affinity to mu opioid receptor (unknown origin).
Mu-type opioid receptor (Homo sapiens, UniProt P35372), sequence (P35372 whole entry): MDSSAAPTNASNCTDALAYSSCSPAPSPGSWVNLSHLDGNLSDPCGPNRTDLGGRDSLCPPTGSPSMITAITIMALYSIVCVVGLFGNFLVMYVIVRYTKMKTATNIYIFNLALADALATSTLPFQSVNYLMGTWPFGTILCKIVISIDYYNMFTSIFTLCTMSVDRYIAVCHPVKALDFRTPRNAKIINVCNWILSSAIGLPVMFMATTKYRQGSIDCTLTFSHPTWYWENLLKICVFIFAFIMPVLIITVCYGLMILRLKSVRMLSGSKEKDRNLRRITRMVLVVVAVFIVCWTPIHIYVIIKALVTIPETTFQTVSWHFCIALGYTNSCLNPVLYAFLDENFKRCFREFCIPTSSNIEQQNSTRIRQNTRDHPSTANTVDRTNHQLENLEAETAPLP
For a further series, the system named is Rattus norvegicus. The experiment in a line: Inhibition of gastrointestinal transit of charcoal meal in rat at 55.2 mg/kg, po. In kind it is organism-based. Also noted: dose 55.2 mg/kg, route oral. Conditions: in vivo.
Series [3] has as its system Mus musculus. As to the kind of experiment: Antinociceptive activity in ddY mouse assessed as tolerance level at 10 mg/kg, sc bid measured on day 5 by tail-flick test. Format: functional. A general note: In hot-plate and tail-flick tests a longer latency is read as antinociception.
The nature of series [4]: Binding affinity to delta opioid receptor (unknown origin).
The species named for series [5] is Cavia porcellus. The experiment in a line: Agonist activity at opioid receptor in guinea pig ileum assessed as inhibition of electrically-induced twitch at 100 pM to 30 uM relative to morphine. Format: tissue-based.
Series [6] deals with T1, Kappa-type opioid receptor (Cavia porcellus, UniProt P41144). As to the kind of experiment: Displacement of [3H]U-69,593 from guinea pig brain kappa opoid receptor after 1 hr by liquid scintillation counting analysis. For orientation: In a radioligand displacement assay an active substance lowers the binding of a labelled ligand.
T1 sequence (P41144 whole entry): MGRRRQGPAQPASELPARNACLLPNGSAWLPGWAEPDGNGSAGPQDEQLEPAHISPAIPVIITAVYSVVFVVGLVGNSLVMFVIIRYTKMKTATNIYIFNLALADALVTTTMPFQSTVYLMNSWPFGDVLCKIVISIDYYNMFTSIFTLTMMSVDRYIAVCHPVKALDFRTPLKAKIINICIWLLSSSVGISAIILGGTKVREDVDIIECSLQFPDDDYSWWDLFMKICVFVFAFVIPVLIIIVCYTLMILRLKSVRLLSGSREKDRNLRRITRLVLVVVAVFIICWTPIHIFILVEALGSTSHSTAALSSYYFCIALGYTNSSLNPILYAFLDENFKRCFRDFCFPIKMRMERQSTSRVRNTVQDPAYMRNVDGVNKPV
Series [7] has as its target T2, Mu-type opioid receptor (Cavia porcellus, UniProt P97266). The experiment in a line: Displacement of [3H]DAMGO from guinea pig brain mu opoid receptor after 3 hrs by liquid scintillation counting analysis.
For series [8], the target named is T2, Mu-type opioid receptor. The experiment in a line: Displacement of [3H]DAMGO from mu opoid receptor in Dunkin-Hartley guinea pig brain after 1.5 hrs by liquid scintillation spectrometry.
A short description of series [9]: Displacement of [3H]DPDPE from guinea pig brain delta opoid receptor after 4 hrs by liquid scintillation counting analysis. More on the design: species or system Cavia porcellus.
For series [10], the species on record is Cavia porcellus. The experiment in a line: Selectivity ratio of Ki for mu opioid receptor in Dunkin-Hartley guinea pig brain over Ki for delta opioid receptor in Dunkin-Hartley guinea pig brain.
A short description of series [11]: Displacement of [3H]DPDPE from delta opoid receptor in Dunkin-Hartley guinea pig brain after 2 hrs by liquid scintillation spectrometry. Also noted: species or system Cavia porcellus.
In series [12] the target is T1, Kappa-type opioid receptor. As to the kind of experiment: Displacement of [3H]U-69593 from kappa opoid receptor in Dunkin-Hartley guinea pig brain after 1 hr by liquid scintillation spectrometry.
The test system of series [13] is Mus musculus. As to the kind of experiment: Antinociceptive activity in mouse at 92 mg/kg, po by hot plate test. In kind it is functional.

Each structure is given as a SMILES string. pKi: −log10 of the molar value. Active and inactive are the calls of the source. No cut-off for these calls is given here.

T2 sequence (P97266 whole entry): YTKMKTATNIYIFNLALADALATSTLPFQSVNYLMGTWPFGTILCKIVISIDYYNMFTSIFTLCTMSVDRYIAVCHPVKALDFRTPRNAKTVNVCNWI

On to `CC[C@@H]1CN2CC[C@@]34OCCO[C@@]3(Nc3ccc(F)c(OC)c34)[C@@H]2C[C@@H]1/C(=C\OC)C(=O)OC`, for which the pKi (in [1]; at Mu-type opioid receptor [2]) was 8.15 each time.

In the case of `CN1CC[C@]23c4c5ccc(O)c4O[C@H]2[C@@H](O)C=C[C@H]3[C@H]1C5` [MORPHINE], the “inhibition (INH)” value in the series with Rattus norvegicus was found to be 70%. In the series on Mus musculus [3] (route subcutaneous), the Activity was 100%.

As to `COc1ccc2c3c1O[C@H]1[C@@H](O)C=C[C@H]4[C@@H](C2)N(C)CC[C@@]341` [CODEINE], in the series with Rattus norvegicus, the “inhibition (INH)” value is 70%.

For `CC[C@@H]1CN2CC[C@]3(Nc4cccc(OC)c4C3=O)[C@@H]2C[C@@H]1/C(=C\OC)C(=O)OC`, the pKi in [1] was 7.10; at Mu-type opioid receptor [2], 11.00; in series [4], 8.52.

With `CC[C@@H]1CN2CCc3c([nH]c4cccc(O)c34)[C@@H]2C[C@@H]1/C(=C\OC)C(=O)OC`, in the series filed under Cavia porcellus [5], the Efficacy worked out at 57% and the inhibition amounted to 41%.

For the molecule `CCO[C@]12CCN3C[C@@H](CC)[C@@H](/C(=C\OC)C(=O)OC)C[C@H]3C1=Nc1cccc(OC)c12`, in the series listed under Cavia porcellus [5], the Efficacy worked out at 26% and the inhibition turned out to be 1%.

On to `CC[C@@H]1CN2CCc3c([nH]c4cccc(OC(C)=O)c34)[C@@H]2C[C@@H]1/C(=C\OC)C(=O)OC`, for which, in the series filed under Cavia porcellus [5], the Efficacy is 38% and the inhibition is 2%.

With `CC[C@@H]1CN2CC[C@@]3(O)C(=Nc4cccc(OC)c43)[C@@H]2C[C@@H]1/C(=C\OC)C(=O)OC`, the outcome in the series on Mus musculus [3] was Active. In addition, the pKi in [6] is 6.71; on Mu-type opioid receptor [7], 8.01; on Mu-type opioid receptor [8] it was 7.89; in series [9], 6.84; in series [11], 6.81. Besides, the Efficacy in the series listed under Cavia porcellus [5] is 99%. In the series filed under Cavia porcellus [10], the Ratio Ki was greater than 10.

For `CC[C@@H]1CN2CC[C@@]3(OC(C)=O)C(=Nc4cccc(OC)c43)[C@@H]2C[C@@H]1/C(=C\OC)C(=O)OC`, in the series filed under Cavia porcellus [5], the Efficacy stood at 15% and the inhibition came to 21%.

For `CC[C@@H]1CN2CC[C@@]3(OC)C(=Nc4cccc(OC)c43)[C@@H]2C[C@@H]1/C(=C\OC)C(=O)OC`, in the series listed under Cavia porcellus [5], the Efficacy was 70% and the inhibition is 19%.

Turning to `CC[C@@H]1CN2CCc3c([nH]c4cccc(OC)c34)[C@@H]2C[C@@H]1/C(=C\OC)C(=O)OC`, the “inhibition (INH)” value with Rattus norvegicus was determined as 18%. The molecule further showed a pKi in series [12] of less than 6.00. Moreover, in the series listed under Cavia porcellus [5], the Efficacy was found to be 95% and the inhibition was determined as 26%. Besides, the Ratio Ki in the series listed under Cavia porcellus [10] came out at 10. In the series on Mus musculus [13], the Activity was 100%. This molecule gave a pKi in series [11] of 7.22.
